Measured values reported in patent US10927139B2, “Chemically cleavable group” (Tagworks Pharmaceuticals B.V., priority 2012, dated 2021).

Assays:
[1] = Tetrazine-induced doxorubicin release from Axial-TCO-1-Doxorubicin in serum; set-up: species or system mouse; details: 10 equiv. tetrazine; 50% serum; 37° C.; LCMS at 4 h (n = 3)
Procedure: (§1) In a similar fashion as Example 3, the release of doxorubicin from TCO-1-doxorubucin as induced by tetrazines 1, 8, 9 in PBS/ACN and in serum was measured.
Serum experiments were conducted as follows:
TCO-1-doxorubucin (6.25×10^−8 mol) was dissolved in DMSO (0.050 mL), and PBS (0.475 mL) was added slowly in aliquots of 0.010 mL, followed by mouse serum (0.475 mL). A portion of this mixture (0.200 mL) was equilibrated at 37° C., and a solution of tetrazine (1.25×10^−7 mol) in DMSO (0.005 mL) was added, and the solution was thoroughly mixed and incubated at 37° C. in the dark for 4 h. Subsequently, cold MeCN (0.200 mL) was added, followed by centrifugation at 13400 rpm for 5 min. The supernatant was used for further analysis by HPLCMS/PDA analysis to determine the release of doxorubicin.

[2] = Tetrazine-induced release of bead-bound radioactivity from streptavidin beads loaded with 125I-Rtx-TCO-biotin; details: beads with 21 μg ^125I-Rtx-TCO-biotin/mg; 1.5×10^3 eqs tetrazine; 1 hour at room temperature; gamma counting
Procedure: The bead suspension containing 21 μg ^125I-Rtx-TCO-biotin/mg beads (1 mL in PBS) was divided in two aliquots and reacted with a large excess of 3,6-dimethyl-1,2,4,5-tetrazine (8, 1.5×10^3 eqs with respect to Rtx) in DMSO (5 μL) or with DMSO alone (control) and incubated for 1 hour at room temperature on a roller bench. […] SDS-PAGE confirmed that the activity in the supernatant was due to the release of ^125I-Rtx from the beads (FIG. 4), thus confirming cleavage of the Rtx-TCO-biotin linker upon reaction with the 3,6-dimethyl-1,2,4,5-tetrazine.

[3] = Tetrazine-induced doxorubicin release from Axial-TCO-1-Doxorubicin in PBS/MeCN (LCMS); details: 10 equiv. tetrazine; 25% MeCN in PBS; 37° C.; LCMS at 4 h (n = 3)
Procedure: PBS/MeCN (1 mL, 3/1), preheated at 37° C. and TCO-2-doxorubicin (10 μL of a 2.5 mM solution in DMSO, 1 eq.) were added to a preheated injection vial. Tetrazine (10 μL of a 25 mM solution in DMSO, 10 eq.) was added and the vial was vortexed. After incubation for 1 hour at 37° C., the vial was placed in LC-MS autosampler at 10° C. LC-MS analysis was performed using a 5% to 100% H2O/MeCN gradient over 11 minutes with a C18 reverse-phase column at 35° C. A control sample containing only TCO-2-doxorubicin (1 eq), as well as a sample containing only doxorubicin (1 eq.), was analyzed under the same conditions. All tetrazine containing samples were measured twice and the doxorubicin control sample was run after every three other samples during an overnight program. […] The calculated percentage of release was corrected when it was observed that the TCO-2-doxorubicin was not fully converted to inv-DA adduct(s). This was done by quantification of remaining dox-TCO, but full conversion was almost always observed. Peak areas (used for doxorubin quantification) were determined at λ=470-500 nm where characteristic doxorubicin absorption takes place and peak integration was done by hand.
as §1

With `Cc1nnc(C)nn1` [tetrazine 8, 3,6-dimethyl-1,2,4,5-tetrazine] the “Doxorubicin release (%) from Axial-TCO-1-Doxorubicin, Serum” value [1] was 75 ± 4%, the “release of the bead-bound radioactivity” value [2] was 37% and the “Doxorubicin release (%) from Axial-TCO-1-Doxorubicin, PBS/MeCN (3/1)” value [3] was 79 ± 3%.
